These results are taken from ChEMBL document CHEMBL1201862, “PubChem BioAssay data set” (2004).

Among the test systems are CAKI-1; MCF7; A549; 786-0; M14; HOP-92; SNB-75; Malme-3M; UACC-62; HT-29; ACHN; KM12; BT-549; SF-295; U-251; K562; IGROV-1; RXF 393; OVCAR-8; SK-MEL-5.
Test in all cases: inhibition of tumour cell growth, NCI panel, 48 h

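Five concentrations, 48 hours, 96-well plates. GI50: concentration for 50% inhibition of growth.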 Activity calls are given as the source filed them. No stated cut-off is given here; in the data, active = GI50 up to about 1.1 µM and inactive = higher.

With `NCCNCC(O)CO` (stereo not given), the GI50 in the test with CAKI-1, in the test on MCF7, in the test on A549, in the test on 786-0, in the test with M14 and in the test with HOP-92 was > 100 µM (inactive) throughout. Besides, the GI50 in the test with SNB-75, with Malme-3M, in the test on UACC-62, in the test with HT-29, in the test with ACHN and in the test with KM12 was > 100 µM (inactive) in each case. Further, the GI50 in the test on BT-549, in the test on SF-295, in the test with U-251, with K562, with IGROV-1 and in the test with RXF 393 was > 100 µM (inactive) in each case. Moreover, the GI50 in the test on OVCAR-8 and in the test with SK-MEL-5 was > 100 µM (inactive) in each case.

As for `Br/C(=N\N=c1/nn[nH][nH]1)c1ccncc1`, the GI50 with CAKI-1, in the test with MCF7, in the test on A549, in the test with 786-0, with M14 and in the test on HOP-92 was > 100 µM (inactive) each time. The GI50 in the test on SNB-75, in the test on Malme-3M, with UACC-62, with HT-29, with ACHN and in the test with KM12 was > 100 µM (inactive) in each case. The GI50 in the test with BT-549, in the test with SF-295, with U-251, in the test with K562, with IGROV-1 and in the test with RXF 393 was > 100 µM (inactive) each time. In addition, the GI50 with OVCAR-8 and in the test on SK-MEL-5 was > 100 µM (inactive) throughout.

Consider `O=C(O)c1ccccc1CC1Cc2ccccc2C1`, for which the GI50 in the test on CAKI-1, in the test with MCF7, in the test with A549, with 786-0, with M14 and with HOP-92 was > 100 µM (inactive) each time. Moreover, the GI50 in the test on SNB-75, in the test with Malme-3M, in the test with UACC-62, with HT-29, in the test on ACHN and in the test on KM12 was > 100 µM (inactive) each time. The GI50 in the test with BT-549, with SF-295, in the test on U-251, in the test on K562, in the test with IGROV-1 and with RXF 393 was > 100 µM (inactive) in each case. Moreover, the GI50 with OVCAR-8 and in the test with SK-MEL-5 was > 100 µM (inactive) each time.

As to `CCCCCc1c(CCCC)c(=O)[nH]c2cc(CNCC(OC)OC)ccc12`, the GI50 with CAKI-1 was 10.9 µM (inactive); in the test on MCF7 it was 12.9 µM (inactive); with A549, 12.6 µM (inactive); in the test on 786-0 it was 4.47 µM (inactive); in the test on M14, 2.81 µM (inactive); with HOP-92, 7.41 µM (inactive). In addition, the GI50 in the test with SNB-75 was 15.6 µM (inactive); in the test on Malme-3M, 2.83 µM (inactive); in the test on UACC-62 it was 5.85 µM (inactive); with HT-29, 3.91 µM (inactive); in the test on ACHN, 14.4 µM (inactive); in the test on KM12, 11.7 µM (inactive). The GI50 with BT-549 is 14.8 µM (inactive); in the test with SF-295, 17.2 µM (inactive); in the test with U-251, 10.8 µM (inactive); with K562 it was 1.9 µM (inactive); in the test with IGROV-1, 14.9 µM (inactive); in the test on RXF 393, 12 µM (inactive). The GI50 in the test with OVCAR-8 was 16.3 µM (inactive); with SK-MEL-5, 8.77 µM (inactive).

For the compound `O=C1CC(Cl)c2c1csc2Br` (stereo not given), the GI50 with CAKI-1 was 5.61 µM (inactive); in the test with MCF7 it was 6.25 µM (inactive); with A549 it was 19 µM (inactive); in the test with 786-0, 7.91 µM (inactive); in the test with M14 it was 13.9 µM (inactive); with HOP-92, 21.5 µM (inactive). Moreover, the GI50 in the test with SNB-75 was 19.8 µM (inactive); in the test with Malme-3M, 15.7 µM (inactive); in the test with UACC-62, 15.3 µM (inactive); in the test on HT-29, 21.7 µM (inactive); with ACHN it was 15.6 µM (inactive); in the test on KM12, 13.2 µM (inactive). Also, the GI50 with BT-549 is 19.9 µM (inactive); in the test on SF-295, 23.7 µM (inactive); with U-251, 16.7 µM (inactive); with K562, 17.6 µM (inactive); with IGROV-1, 16.5 µM (inactive); in the test on RXF 393, 19 µM (inactive). Further, the GI50 in the test with OVCAR-8 was 16.3 µM (inactive); in the test on SK-MEL-5, 16.9 µM (inactive).

With `O=C1C(=O)N(c2cccc(C(F)(F)F)c2)C(=O)C(=O)C1c1nc2ccccc2s1`, the GI50 is > 100 µM (inactive) with CAKI-1; 45.1 µM (inactive) with MCF7; > 100 µM (inactive) with A549; 72.3 µM (inactive) with 786-0; 98.2 µM (inactive) in the test with M14; > 100 µM (inactive) with HOP-92. The GI50 is > 49.5 µM (inactive) in the test on SNB-75; 68.1 µM (inactive) in the test with Malme-3M; > 100 µM (inactive) in the test on UACC-62; 78.3 µM (inactive) with HT-29; > 65.2 µM (inactive) in the test with ACHN; > 64 µM (inactive) in the test on KM12. Moreover, the GI50 is > 100 µM (inactive) with BT-549; 65.3 µM (inactive) in the test on SF-295; 62.4 µM (inactive) with U-251; 51.2 µM (inactive) in the test on K562; > 81.7 µM (inactive) in the test with IGROV-1; > 100 µM (inactive) in the test with RXF 393. In addition, the GI50 with OVCAR-8 is 20.2 µM (inactive); with SK-MEL-5, > 100 µM (inactive).

In the case of `N#CC1=C(N)OC(c2ccc([N+](=O)[O-])cc2)C1(C#N)C#N` (stereo not given), the GI50 in the test on CAKI-1 is 0.785 µM (active); in the test on MCF7 it was 15.6 µM (inactive); in the test with A549, 24.4 µM (inactive); in the test with 786-0 it was 9.66 µM (inactive); with M14 it was 16.7 µM (inactive); in the test on HOP-92, 7.94 µM (inactive). Moreover, the GI50 is 20.6 µM (inactive) with SNB-75; 10.2 µM (inactive) in the test with Malme-3M; 8.71 µM (inactive) in the test on UACC-62; 9.14 µM (inactive) with HT-29; 10.2 µM (inactive) in the test on ACHN; > 33.7 µM (inactive) in the test on KM12. Further, the GI50 was 17.1 µM (inactive) in the test on BT-549; 33.7 µM (inactive) in the test on SF-295; 25.4 µM (inactive) with U-251; 37.8 µM (inactive) in the test on K562; 15.6 µM (inactive) with IGROV-1; 7.23 µM (inactive) with RXF 393. Also, the GI50 is 17.5 µM (inactive) in the test with OVCAR-8 and 9.48 µM (inactive) in the test on SK-MEL-5.

Consider `Cc1ccc(-c2c(C#N)c(-c3ccccc3)n(NS(=O)(=O)c3ccc(C)cc3)c(=O)c2C#N)cc1`, for which the GI50 in the test with CAKI-1 was 71.1 µM (inactive); in the test with MCF7, 37 µM (inactive); with A549, 55.8 µM (inactive); with 786-0, 59.4 µM (inactive); in the test with M14, 74.1 µM (inactive); in the test with HOP-92 it was 11.4 µM (inactive). Also, the GI50 in the test on SNB-75 was 92.5 µM (inactive); in the test on Malme-3M it was 38.6 µM (inactive); in the test on UACC-62 it was 43.8 µM (inactive); with HT-29, 69.2 µM (inactive); with ACHN it was 38 µM (inactive); in the test with KM12, 27.4 µM (inactive). The GI50 is 22.9 µM (inactive) with BT-549; 41.3 µM (inactive) with SF-295; 49.5 µM (inactive) in the test on U-251; 48 µM (inactive) with K562; 36.7 µM (inactive) in the test with IGROV-1; 51.5 µM (inactive) in the test with RXF 393. Also, the GI50 in the test on OVCAR-8 is 41.9 µM (inactive); with SK-MEL-5, 19.2 µM (inactive).

As for `Cc1nn(-c2ccccc2)c2nc3c(c(C)nn3-c3ccccc3)c(-c3ccccc3Br)c12`, the GI50 in the test on CAKI-1 was > 100 µM (inactive); in the test with MCF7, > 100 µM (inactive); in the test with A549, 8.95 µM (inactive); in the test on 786-0, > 100 µM (inactive); in the test with M14 it was > 100 µM (inactive); in the test on HOP-92, > 100 µM (inactive). Also, the GI50 in the test with SNB-75, in the test with Malme-3M, in the test on UACC-62, in the test on HT-29, in the test with ACHN and in the test with KM12 was > 100 µM (inactive) in each case. The GI50 in the test on BT-549 is > 100 µM (inactive); in the test on SF-295, 57.3 µM (inactive); with U-251, > 100 µM (inactive); with K562 it was > 100 µM (inactive); with IGROV-1 it was > 100 µM (inactive); in the test on RXF 393, > 100 µM (inactive). In addition, the GI50 in the test on OVCAR-8 and in the test with SK-MEL-5 was > 100 µM (inactive) in each case.

As to `Cc1ccc(/N=C2/SC(c3ccc(C)cc3)(c3ccc(C)cc3)c3ccccc32)cc1`, the GI50 in the test with CAKI-1, with MCF7, with A549, in the test on 786-0, with M14 and in the test on HOP-92 was > 100 µM (inactive) in each case. The GI50 in the test on SNB-75, with Malme-3M, in the test on UACC-62, in the test with HT-29, in the test with ACHN and in the test with KM12 was > 100 µM (inactive) each time. Moreover, the GI50 in the test on BT-549, with SF-295, with U-251, in the test on K562, in the test on IGROV-1 and in the test with RXF 393 was > 100 µM (inactive) in each case. Moreover, the GI50 with OVCAR-8 and in the test on SK-MEL-5 was > 100 µM (inactive) each time.
